Reference: US11891397B1, “Pyrido[4′,3′:4,5]pyrrolo[3,2-c][1,7]naphthyridin-10-one compounds as CK2 inhibitors” (KING FAISAL UNIVERSITY, priority 2023, dated 2024)

Columns and labels:
HCT116 (colon) = test: In vitro cytotoxic activity MTT assay, HCT116; type: cell-based; settings: Homo sapiens, HCT-116, 96 hours exposure, read-out: IC50, 50% inhibition of cell proliferation
Protocol: (§1) Compounds 1-16 were screened for their in vitro cytotoxic activity utilizing a 3-(4,5-dimethyl-thiazol-2-yl)-2,5-diphenyltetrazolium bromide (MTT) assay against selected cancer human cell lines consisting of PC3 (prostate), HCT116 (colon), A375 (melanoma), H1299 (lung), MIAPaCa-2 (pancreas), HL60 (leukemia), MCF7 (breast), MDA-MB-231 (breast) (T. Mosmann, J. Immunol. Meth., 1983, 65, 55-63). The cells were cultured at 37° C. in RMPI1640 medium supplemented with 10% fetal bovine serum, 50 IU/mL penicillin, and 50 μg/mL streptomycin in a 5% CO2 incubator. All cells were sub-cultured 3 times/week by trypsinisation. Viable cells were seeded and allowed to adhere for 12 h before a test drug was added in 96-well plates at an initial density of 1.0×10^5 cells/mL. Tumour cell lines were separately exposed to various concentrations of the tested compounds followed by incubation at a temperature of 37° C. during 96 h inside a medium of fresh RMPI 1640. Cells were subsequently incubated at 37° C. using MTT at 0.5 mg/mL during 4 h. After removal of supernatant, formazan crystals were dissolved in isopropanol and the optical density was measured at 570 nm. CX-4945 was used as a positive control.

MCF7 (breast) = test: In vitro cytotoxic activity MTT assay, MCF7; type: cell-based; settings: Homo sapiens, 96 hours exposure, read-out: IC50, 50% inhibition of cell proliferation
Protocol: as §1

MDA-MB-231 (breast) = test: In vitro cytotoxic activity MTT assay, MDA-MB-231; type: cell-based; settings: Homo sapiens, 96 hours exposure, read-out: IC50, 50% inhibition of cell proliferation
Protocol: as §1

A375 (melanoma) = test: In vitro cytotoxic activity MTT assay, A375; type: cell-based; settings: Homo sapiens, A-375, 96 hours exposure, read-out: IC50, 50% inhibition of cell proliferation
Protocol: as §1

PC3 (prostate) = test: In vitro cytotoxic activity MTT assay, PC3; type: cell-based; settings: Homo sapiens, 96 hours exposure, read-out: IC50, 50% inhibition of cell proliferation
Protocol: as §1

recombinant human CK2 = target: T1, recombinant human CK2 (Homo sapiens, UniProt P68400); test: CK2 Kinase Assay (33P-ATP filter plate); type: biochemical; settings: final ATP concentration 15 μM, 10 min at 30° C; read-out: protein kinase CK2 IC50
T1 construct: purchased Millipore
T1 sequence (P68400 whole entry): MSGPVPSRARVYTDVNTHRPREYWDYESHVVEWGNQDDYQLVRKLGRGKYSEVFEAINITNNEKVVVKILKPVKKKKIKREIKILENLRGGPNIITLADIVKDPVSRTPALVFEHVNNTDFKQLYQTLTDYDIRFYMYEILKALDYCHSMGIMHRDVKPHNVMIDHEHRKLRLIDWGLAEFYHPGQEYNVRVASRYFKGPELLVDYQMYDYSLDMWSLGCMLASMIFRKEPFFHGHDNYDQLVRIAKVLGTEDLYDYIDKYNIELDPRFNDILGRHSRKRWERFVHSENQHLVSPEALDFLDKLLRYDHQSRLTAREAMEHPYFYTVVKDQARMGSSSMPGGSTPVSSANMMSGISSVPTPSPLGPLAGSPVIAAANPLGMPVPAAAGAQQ
T1 sequence (P67870 whole entry partner): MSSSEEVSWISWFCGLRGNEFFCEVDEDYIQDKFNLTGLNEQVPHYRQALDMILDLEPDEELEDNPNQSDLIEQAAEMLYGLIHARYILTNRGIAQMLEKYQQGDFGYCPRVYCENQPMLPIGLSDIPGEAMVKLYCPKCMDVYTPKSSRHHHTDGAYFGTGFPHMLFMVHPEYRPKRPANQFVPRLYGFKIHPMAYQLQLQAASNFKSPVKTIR
Protocol: CK2 Kinase Assay was conducted using the protocol as described in Pierre F. et al; J. Med. Chem. 2011, 54, 635-654. The tested compounds in aqueous solution were added at a volume of 10 μL to a reaction mixture comprising 10 μL of assay dilution buffer (ADB; 20 mM MOPS, pH 7.2, 25 mM β-glycerol phosphate, 5 mM EGTA, 1 mM sodium orthovanadate, and 1 mM dithiothreitol), 10 μL of substrate peptide (RRRDDDSDDD, dissolved in ADB at a concentration of 1 mM), 10 μL of recombinant human CK2 (RROP-holoenzyme, 25 ng dissolved in ADB; Millipore). Reactions were initiated by the addition of 10 μL of ATP solution (90% 75 mMMgCl2, 75 μM ATP (final ATP concentration:15 μM) dissolved in ADB; 10% [γ-33P] ATP (stock 1 mCi/100 μL; 3000 Ci/mmol (Perkin-Elmer) and maintained for 10 min at 30° C. The reactions were quenched with 100 μL of 0.75% phosphoric acid and then transferred to and filtered through a phosphor cellulose filter plate (Millipore). After washing each well five times with 0.75% phosphoric acid, the plate was dried under vacuum for 5 min and, following the addition of 15 μL of scintillation fluid to each well, the residual radioactivity was measured using a Wallac luminescence counter. The IC50 values were derived from eight concentrations of test inhibitors.

H1299 (lung) = test: In vitro cytotoxic activity MTT assay, H1299; type: cell-based; settings: Homo sapiens, NCI-H1299, 96 hours exposure, read-out: IC50, 50% inhibition of cell proliferation
Protocol: as §1

MIAPaCa-2 (pancreas) = test: In vitro cytotoxic activity MTT assay, MIAPaCa-2; type: cell-based; settings: Homo sapiens, MIA PaCa-2, 96 hours exposure, read-out: IC50, 50% inhibition of cell proliferation
Protocol: as §1

HL60 (leukemia) = test: In vitro cytotoxic activity MTT assay, HL60; type: cell-based; settings: Homo sapiens, HL-60, 96 hours exposure, read-out: IC50, 50% inhibition of cell proliferation
Protocol: as §1

O=c1[nH]ccc2c1[nH]c1c3ccncc3nc(Nc3cccc(Cl)c3)c21 [Compound 1, 6-((3-chlorophenyl)amino)-9,11-dihydro-10H-pyrido[4′,3′:4,5]pyrrolo[3,2-c][1,7]naphthyridin-10-one]
IC50 (HCT116 (colon)): 2100 nM | IC50 (MCF7 (breast)): 5400 nM | IC50 (MDA-MB-231 (breast)): 4000 nM | IC50 (A375 (melanoma)): 3900 nM | IC50 (PC3 (prostate)): 1800 nM | IC50 (recombinant human CK2): 45 nM | IC50 (H1299 (lung)): 2700 nM | IC50 (MIAPaCa-2 (pancreas)): 1200 nM | IC50 (HL60 (leukemia)): 4600 nM
